According to ChEMBL document CHEMBL1201862, “PubChem BioAssay data set” (2004):
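Method: 48-hour compound exposure of cells in 96-well plates, five concentrations, linear interpolation of endpoints. GI50 = concentration required for 50% inhibition of growth.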 Active and inactive are the calls of the source. No stated cut-off is given here; in the data, active = GI50 up to about 1.1 µM and inactive = higher.

Tests used:
Test in all cases: inhibition of tumour cell growth, NCI panel, 48 h
A498 = tested on: A498
COLO 205 = tested on: COLO 205
HCC 2998 = tested on: HCC 2998
HL-60 = tested on: HL-60
HOP-92 = tested on: HOP-92
NCI-H23 = tested on: NCI-H23
OVCAR-3 = tested on: OVCAR-3
SF-539 = tested on: SF-539
SK-MEL-5 = tested on: SK-MEL-5
SN12C = tested on: SN12C
SNB-19 = tested on: SNB-19
SNB-75 = tested on: SNB-75
SR = tested on: SR
SW-620 = tested on: SW-620
UO-31 = tested on: UO-31
LOX IMVI = tested on: LOX IMVI

Measured: GI50

C/C(=C\CC/C=C(\C)CC/C=C(\C)CCC1SC1(C)C)CC/C=C(\C)CCC1OC1(C)C (stereo not given)
inactive: A498 > 100 µM | COLO 205 > 100 µM | HCC 2998 > 100 µM | HL-60 > 100 µM | HOP-92 > 100 µM | NCI-H23 > 100 µM | OVCAR-3 > 100 µM | SF-539 > 100 µM | SK-MEL-5 > 100 µM | SN12C > 100 µM | SNB-19 > 100 µM | SNB-75 > 100 µM | SR > 100 µM | SW-620 > 100 µM | UO-31 > 100 µM

Cc1cn(C2CC(OC3CCCCO3)C(CO)O2)c(=O)[nH]c1=O (stereo not given)
inactive: A498 > 100 µM | COLO 205 > 100 µM | HCC 2998 > 100 µM | HL-60 > 100 µM | HOP-92 > 100 µM | LOX IMVI > 100 µM | NCI-H23 > 100 µM | OVCAR-3 > 100 µM | SF-539 > 100 µM | SN12C > 100 µM | SNB-19 > 100 µM | SR > 100 µM | SW-620 > 100 µM | UO-31 > 100 µM

CN(C)CC1CCC/C1=N\O (stereo not given)
inactive: A498 > 100 µM | COLO 205 > 100 µM | HCC 2998 > 100 µM | HOP-92 > 100 µM | LOX IMVI > 100 µM | NCI-H23 > 100 µM | OVCAR-3 > 100 µM | SF-539 > 100 µM | SK-MEL-5 > 100 µM | SN12C > 100 µM | SNB-75 > 100 µM | SR > 100 µM | SW-620 > 100 µM | UO-31 > 100 µM

CNC(=S)NC1CCCCC1NC(=S)NC (stereo not given)
inactive: COLO 205 > 100 µM | HCC 2998 > 100 µM | HL-60 > 100 µM | HOP-92 > 100 µM | LOX IMVI > 100 µM | NCI-H23 > 100 µM | OVCAR-3 > 100 µM | SF-539 > 100 µM | SK-MEL-5 > 100 µM | SN12C > 100 µM | SNB-19 > 100 µM | SNB-75 > 100 µM | SR > 100 µM | SW-620 > 100 µM | UO-31 > 100 µM

COC(=O)C1=C(c2cc(OC)c(OC)c(OC)c2)OC(c2ccc3c(c2)OCO3)C1 (stereo not given)
inactive: A498 8.95 µM | COLO 205 12.8 µM | HCC 2998 28.4 µM | HOP-92 24.8 µM | LOX IMVI 6.28 µM | NCI-H23 25.7 µM | OVCAR-3 26.9 µM | SF-539 20.7 µM | SK-MEL-5 19.1 µM | SN12C 20.3 µM | SNB-19 42.5 µM | SNB-75 39.4 µM | SR 5.38 µM | SW-620 18.1 µM | UO-31 15.5 µM

CCCC(=O)OCC(O)CO (stereo not given)
inactive: COLO 205 > 5000 µM | HL-60 2920 µM | HOP-92 3080 µM | LOX IMVI > 5000 µM | NCI-H23 > 5000 µM | SF-539 > 5000 µM | SK-MEL-5 4970 µM | SN12C > 5000 µM | SNB-75 > 5000 µM | SR > 5000 µM | SW-620 > 5000 µM | UO-31 2860 µM

N#CC(C(=O)/C(=N\NC(N)=O)C(C#N)c1ccc(Cl)cc1)c1ccc(Cl)cc1 (stereo not given)
inactive: A498 > 100 µM | COLO 205 > 100 µM | HL-60 > 100 µM | HOP-92 68.4 µM | LOX IMVI > 100 µM | NCI-H23 > 100 µM | OVCAR-3 > 100 µM | SF-539 > 100 µM | SK-MEL-5 > 100 µM | SN12C > 100 µM | SNB-19 > 100 µM | SW-620 > 100 µM | UO-31 > 100 µM

CCc1cccc(C)c1N1C(=O)C(=O)C(c2nc3ccccc3o2)/C(=N/NC(=S)NN)C1=O (stereo not given)
inactive: A498 > 100 µM | COLO 205 > 100 µM | HL-60 > 100 µM | HOP-92 > 100 µM | LOX IMVI > 100 µM | NCI-H23 > 100 µM | OVCAR-3 > 100 µM | SF-539 > 100 µM | SK-MEL-5 > 100 µM | SN12C > 100 µM | SNB-19 > 100 µM | SNB-75 > 100 µM | SW-620 > 100 µM | UO-31 > 100 µM

CC12CC3C(CC1SCC(=O)O2)C3(C)C (stereo not given)
inactive: A498 16.6 µM | COLO 205 > 100 µM | HCC 2998 > 100 µM | HL-60 > 100 µM | HOP-92 > 100 µM | NCI-H23 > 100 µM | OVCAR-3 > 100 µM | SF-539 > 100 µM | SK-MEL-5 > 100 µM | SN12C > 100 µM | SNB-75 > 100 µM | UO-31 > 100 µM

CC(=O)OC12c3ccccc3C1CCCCCC21OCCCO1 (stereo not given)
inactive: A498 > 100 µM | COLO 205 > 100 µM | HCC 2998 > 100 µM | HL-60 > 100 µM | LOX IMVI > 100 µM | NCI-H23 > 100 µM | OVCAR-3 > 100 µM | SF-539 > 100 µM | SK-MEL-5 > 100 µM | SN12C > 100 µM | SNB-19 > 100 µM | SNB-75 > 100 µM | SR > 100 µM | UO-31 > 100 µM

COc1c(Br)cc(Br)c(OC)c1-c1ccc[nH]1
inactive: A498 > 100 µM | COLO 205 > 100 µM | HL-60 31.6 µM | HOP-92 37.3 µM | LOX IMVI > 100 µM | NCI-H23 > 100 µM | OVCAR-3 > 100 µM | SF-539 > 100 µM | SK-MEL-5 > 100 µM | SNB-75 22.1 µM | SW-620 35 µM | UO-31 43.3 µM

CC(=O)Nc1ccc(-c2nnc(SCC(=O)Nc3ccc([N+](=O)[O-])cc3)o2)cc1
inactive: COLO 205 14.2 µM | HL-60 > 100 µM | HOP-92 22.9 µM | LOX IMVI 5.15 µM | NCI-H23 12.2 µM | OVCAR-3 14.5 µM | SF-539 24.3 µM | SK-MEL-5 13.1 µM | SN12C 16.3 µM | SNB-75 13.2 µM | SR 3.18 µM | SW-620 16.2 µM | UO-31 18.9 µM

CCc1ccc(/C(C)=N/NC(N)=S)cc1
inactive: COLO 205 > 100 µM | HCC 2998 > 100 µM | HOP-92 > 100 µM | NCI-H23 > 100 µM | OVCAR-3 > 100 µM | SF-539 > 100 µM | SK-MEL-5 78.2 µM | SNB-19 > 100 µM | SR > 100 µM | UO-31 > 100 µM

O=C(N/C(=C\c1cccc([N+](=O)[O-])c1)c1nc2ccccc2[nH]1)c1ccccc1
inactive: A498 35.8 µM | COLO 205 93.1 µM | HCC 2998 94.4 µM | HOP-92 40.6 µM | NCI-H23 49.1 µM | OVCAR-3 51.2 µM | SF-539 45.6 µM | SK-MEL-5 41.1 µM | SN12C 68.7 µM | SNB-19 61.2 µM | SNB-75 36.4 µM | SR 37.3 µM | SW-620 > 100 µM | UO-31 16.6 µM

O=[N+]([O-])C1(CO)COC(CCc2ccccc2)OC1 (stereo not given)
inactive: HCC 2998 > 100 µM | HL-60 > 100 µM | HOP-92 7.13 µM | LOX IMVI > 100 µM | NCI-H23 > 100 µM | OVCAR-3 > 100 µM | SF-539 > 100 µM | SK-MEL-5 > 100 µM | SN12C > 100 µM | SNB-75 > 100 µM | SR > 100 µM | SW-620 > 100 µM | UO-31 > 100 µM

CCOc1ccc(C2=NN(CC)C(=O)C(C3C(=O)N(c4ccccc4)N=C3C)C2)cc1 (stereo not given)
inactive: A498 > 100 µM | COLO 205 > 100 µM | HCC 2998 > 100 µM | HL-60 > 100 µM | HOP-92 > 100 µM | LOX IMVI > 100 µM | NCI-H23 > 100 µM | OVCAR-3 > 100 µM | SF-539 > 100 µM | SK-MEL-5 > 100 µM | SNB-19 > 100 µM | SW-620 > 100 µM | UO-31 > 100 µM

Nc1ncnc2c1ncn2CCOC(c1ccccc1)P(=O)(O)O (stereo not given)
inactive: A498 > 100 µM | COLO 205 > 100 µM | HCC 2998 > 100 µM | HL-60 > 100 µM | LOX IMVI > 100 µM | NCI-H23 > 100 µM | OVCAR-3 > 100 µM | SF-539 > 100 µM | SK-MEL-5 > 100 µM | SN12C > 100 µM | SNB-19 > 100 µM | SNB-75 > 100 µM | SR > 100 µM | SW-620 > 100 µM | UO-31 > 100 µM

CC(CC(=O)N1C(=O)C(C)(C)[C@@H](O)[C@H]1CC(C)C(Cl)(Cl)Cl)C(Cl)(Cl)Cl (stereo not given in full)
inactive: A498 > 100 µM | COLO 205 > 100 µM | HCC 2998 > 100 µM | HL-60 > 100 µM | HOP-92 > 100 µM | LOX IMVI > 100 µM | OVCAR-3 > 100 µM | SF-539 > 100 µM | SK-MEL-5 > 100 µM | SN12C > 100 µM | SNB-19 > 100 µM | SNB-75 > 100 µM | SW-620 > 100 µM | UO-31 > 100 µM

Cc1ccc(C2=C(c3ccc(C)cc3)C(c3ccc(C)cc3)=C(c3ccc(C)cc3)C2=O)cc1
inactive: A498 > 100 µM | NCI-H23 > 100 µM | SF-539 > 100 µM | SK-MEL-5 > 100 µM | SN12C > 100 µM | SNB-19 > 100 µM | SNB-75 > 100 µM | SR > 100 µM | SW-620 > 100 µM | UO-31 > 100 µM

CC(C)(C)NC(=O)NC12CC3CC(CC(F)(C3)C1)C2
inactive: A498 > 100 µM | COLO 205 > 100 µM | HCC 2998 > 100 µM | HL-60 > 100 µM | HOP-92 > 100 µM | LOX IMVI > 100 µM | NCI-H23 > 100 µM | OVCAR-3 > 100 µM | SF-539 > 100 µM | SNB-19 > 100 µM | SNB-75 52.7 µM | SW-620 > 100 µM | UO-31 > 100 µM
